Test system: CAL-120
Assay: normalised response (% of control), CellTiter-Glo; higher = more viable cells (100 = DMSO, 0 = benzethonium chloride kill control)
Conditions: incubation time: 72 h
Method: (§1)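 DSRT, 72 h incubation, CellTox Green / CellTiter-Glo readout. Signal is normalised to DMSO and benzethonium chloride controls. Value is the normalised response at the highest dose.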

| Compound | normalised response |
| --- | --- |
| N.N.[Cl][Pt][Cl] [Cisplatin] (1000 nM) | 105% |
| Cn1c(Nc2ccc(C(F)(F)F)cc2)nc2cc(Oc3ccnc(-c4ncc(C(F)(F)F)[nH]4)c3)ccc21 [RAF265] (1000 nM) | 67.2% |
| C=C(c1ccc(C(=O)O)cc1)c1cc2c(cc1C)C(C)(C)CCC2(C)C [Bexarotene] (10000 nM) | 112% |
| C[C@]12CC[C@@H]3c4ccc(O)cc4C[C@@H](CCCCCCCCC[S+]([O-])CCCC(F)(F)C(F)(F)F)[C@H]3[C@@H]1CC[C@@H]2O (stereo partly specified) [Fulvestrant] (1000 nM) | 105% |

Test system: BT-549
Assay: as above
Conditions: incubation time: 72 h
Method: as §1

| Compound | normalised response |
| --- | --- |
| O=C1CCC(N2C(=O)c3ccccc3C2=O)C(=O)N1 (stereo unspecified) [Thalidomide] (10000 nM) | 96.7% |
| Oc1nc(-c2ccc(C(F)(F)F)cc2)nc2c1CSCC2 [XAV-939] (10000 nM) | 90.5% |
| O=P1(NCCCl)OCCCN1CCCl (stereo unspecified) [Ifosfamide] (10000 nM) | 99.3% |
| Clc1ccc(Nc2nnc(Cc3ccncc3)c3ccccc23)cc1 [Vatalanib] (10000 nM) | 95.5% |
| C[C@@H](Oc1cc(-c2cnn(C3CCNCC3)c2)cnc1N)c1c(Cl)ccc(F)c1Cl [Crizotinib] (1000 nM) | 93.1% |
| CCC1(c2ccc(N)cc2)CCC(=O)NC1=O (stereo unspecified) [Aminoglutethimide] (10000 nM) | 98.1% |
| Cc1ccc(C(=O)N(CCCN)[C@@H](c2oc3cc(Cl)ccc3c(=O)c2Cc2ccccc2)C(C)C)cc1 (100 nM) | 99.6% |
| Cn1c(CCCC(=O)O)nc2cc(N(CCCl)CCCl)ccc21 [Bendamustine] (10000 nM) | 101% |
| CN[C@@H]1C[C@H]2O[C@@](C)([C@@H]1OC)n1c3ccccc3c3c4c(c5c6ccccc6n2c5c31)C(=O)N[C@H]4O [UCN-01] (10000 nM) | 0.77% |
| C#Cc1cccc(Nc2ncnc3cc(OCCOC)c(OCCOC)cc23)c1 [Erlotinib] (10000 nM) | 75.4% |
| N.N.[Cl][Pt][Cl] [Cisplatin] (1000 nM) | 101% |
| Cn1c(Nc2ccc(C(F)(F)F)cc2)nc2cc(Oc3ccnc(-c4ncc(C(F)(F)F)[nH]4)c3)ccc21 [RAF265] (1000 nM) | 68.7% |
| C=C(c1ccc(C(=O)O)cc1)c1cc2c(cc1C)C(C)(C)CCC2(C)C [Bexarotene] (10000 nM) | 99.9% |
| C[C@]12CC[C@@H]3c4ccc(O)cc4C[C@@H](CCCCCCCCC[S+]([O-])CCCC(F)(F)C(F)(F)F)[C@H]3[C@@H]1CC[C@@H]2O (stereo partly specified) [Fulvestrant] (1000 nM) | 99.3% |

Test system: HCC1937
Assay: as above
Conditions: incubation time: 72 h
Method: as §1

| Compound | normalised response |
| --- | --- |
| O=C1CCC(N2C(=O)c3ccccc3C2=O)C(=O)N1 (stereo unspecified) [Thalidomide] (10000 nM) | 98% |
| Oc1nc(-c2ccc(C(F)(F)F)cc2)nc2c1CSCC2 [XAV-939] (10000 nM) | 89.7% |
| O=P1(NCCCl)OCCCN1CCCl (stereo unspecified) [Ifosfamide] (10000 nM) | 96.5% |
| Clc1ccc(Nc2nnc(Cc3ccncc3)c3ccccc23)cc1 [Vatalanib] (10000 nM) | 96% |
| C[C@@H](Oc1cc(-c2cnn(C3CCNCC3)c2)cnc1N)c1c(Cl)ccc(F)c1Cl [Crizotinib] (1000 nM) | 101% |
| CCC1(c2ccc(N)cc2)CCC(=O)NC1=O (stereo unspecified) [Aminoglutethimide] (10000 nM) | 94.5% |
| Cc1ccc(C(=O)N(CCCN)[C@@H](c2oc3cc(Cl)ccc3c(=O)c2Cc2ccccc2)C(C)C)cc1 (100 nM) | 95.5% |
| Cn1c(CCCC(=O)O)nc2cc(N(CCCl)CCCl)ccc21 [Bendamustine] (10000 nM) | 108% |
| CN[C@@H]1C[C@H]2O[C@@](C)([C@@H]1OC)n1c3ccccc3c3c4c(c5c6ccccc6n2c5c31)C(=O)N[C@H]4O [UCN-01] (10000 nM) | 7.74% |
| C#Cc1cccc(Nc2ncnc3cc(OCCOC)c(OCCOC)cc23)c1 [Erlotinib] (10000 nM) | 76.4% |
| N.N.[Cl][Pt][Cl] [Cisplatin] (1000 nM) | 106% |
| Cn1c(Nc2ccc(C(F)(F)F)cc2)nc2cc(Oc3ccnc(-c4ncc(C(F)(F)F)[nH]4)c3)ccc21 [RAF265] (1000 nM) | 63.7% |
| C=C(c1ccc(C(=O)O)cc1)c1cc2c(cc1C)C(C)(C)CCC2(C)C [Bexarotene] (10000 nM) | 96.6% |
| C[C@]12CC[C@@H]3c4ccc(O)cc4C[C@@H](CCCCCCCCC[S+]([O-])CCCC(F)(F)C(F)(F)F)[C@H]3[C@@H]1CC[C@@H]2O (stereo partly specified) [Fulvestrant] (1000 nM) | 94% |

Test system: BT-474
Assay: as above
Conditions: incubation time: 72 h
Method: as §1

| Compound | normalised response |
| --- | --- |
| O=C1CCC(N2C(=O)c3ccccc3C2=O)C(=O)N1 (stereo unspecified) [Thalidomide] (10000 nM) | 94.6% |
| Oc1nc(-c2ccc(C(F)(F)F)cc2)nc2c1CSCC2 [XAV-939] (10000 nM) | 73% |
| O=P1(NCCCl)OCCCN1CCCl (stereo unspecified) [Ifosfamide] (10000 nM) | 90.3% |
| Clc1ccc(Nc2nnc(Cc3ccncc3)c3ccccc23)cc1 [Vatalanib] (10000 nM) | 94.5% |
| C[C@@H](Oc1cc(-c2cnn(C3CCNCC3)c2)cnc1N)c1c(Cl)ccc(F)c1Cl [Crizotinib] (1000 nM) | 84.9% |
| CCC1(c2ccc(N)cc2)CCC(=O)NC1=O (stereo unspecified) [Aminoglutethimide] (10000 nM) | 105% |
| Cc1ccc(C(=O)N(CCCN)[C@@H](c2oc3cc(Cl)ccc3c(=O)c2Cc2ccccc2)C(C)C)cc1 (100 nM) | 95.6% |
| Cn1c(CCCC(=O)O)nc2cc(N(CCCl)CCCl)ccc21 [Bendamustine] (10000 nM) | 99.6% |
| CN[C@@H]1C[C@H]2O[C@@](C)([C@@H]1OC)n1c3ccccc3c3c4c(c5c6ccccc6n2c5c31)C(=O)N[C@H]4O [UCN-01] (10000 nM) | 4.43% |
| C#Cc1cccc(Nc2ncnc3cc(OCCOC)c(OCCOC)cc23)c1 [Erlotinib] (10000 nM) | 75.9% |
| N.N.[Cl][Pt][Cl] [Cisplatin] (1000 nM) | 94% |
| Cn1c(Nc2ccc(C(F)(F)F)cc2)nc2cc(Oc3ccnc(-c4ncc(C(F)(F)F)[nH]4)c3)ccc21 [RAF265] (1000 nM) | 79.6% |
| C=C(c1ccc(C(=O)O)cc1)c1cc2c(cc1C)C(C)(C)CCC2(C)C [Bexarotene] (10000 nM) | 82.1% |
| C[C@]12CC[C@@H]3c4ccc(O)cc4C[C@@H](CCCCCCCCC[S+]([O-])CCCC(F)(F)C(F)(F)F)[C@H]3[C@@H]1CC[C@@H]2O (stereo partly specified) [Fulvestrant] (1000 nM) | 99% |

Test system: CAL-51
Assay: as above
Conditions: incubation time: 72 h
Method: as §1

| Compound | normalised response |
| --- | --- |
| O=C1CCC(N2C(=O)c3ccccc3C2=O)C(=O)N1 (stereo unspecified) [Thalidomide] (10000 nM) | 84.7% |
| Oc1nc(-c2ccc(C(F)(F)F)cc2)nc2c1CSCC2 [XAV-939] (10000 nM) | 66.6% |
| O=P1(NCCCl)OCCCN1CCCl (stereo unspecified) [Ifosfamide] (10000 nM) | 101% |
| Clc1ccc(Nc2nnc(Cc3ccncc3)c3ccccc23)cc1 [Vatalanib] (10000 nM) | 115% |
| C[C@@H](Oc1cc(-c2cnn(C3CCNCC3)c2)cnc1N)c1c(Cl)ccc(F)c1Cl [Crizotinib] (1000 nM) | 108% |
| CCC1(c2ccc(N)cc2)CCC(=O)NC1=O (stereo unspecified) [Aminoglutethimide] (10000 nM) | 145% |
| Cc1ccc(C(=O)N(CCCN)[C@@H](c2oc3cc(Cl)ccc3c(=O)c2Cc2ccccc2)C(C)C)cc1 (100 nM) | 72.3% |
| Cn1c(CCCC(=O)O)nc2cc(N(CCCl)CCCl)ccc21 [Bendamustine] (10000 nM) | 132% |
| CN[C@@H]1C[C@H]2O[C@@](C)([C@@H]1OC)n1c3ccccc3c3c4c(c5c6ccccc6n2c5c31)C(=O)N[C@H]4O [UCN-01] (10000 nM) | 2.83% |
| C#Cc1cccc(Nc2ncnc3cc(OCCOC)c(OCCOC)cc23)c1 [Erlotinib] (10000 nM) | 77% |
| N.N.[Cl][Pt][Cl] [Cisplatin] (1000 nM) | 87.5% |
| Cn1c(Nc2ccc(C(F)(F)F)cc2)nc2cc(Oc3ccnc(-c4ncc(C(F)(F)F)[nH]4)c3)ccc21 [RAF265] (1000 nM) | 52.1% |
| C=C(c1ccc(C(=O)O)cc1)c1cc2c(cc1C)C(C)(C)CCC2(C)C [Bexarotene] (10000 nM) | 98.3% |
| C[C@]12CC[C@@H]3c4ccc(O)cc4C[C@@H](CCCCCCCCC[S+]([O-])CCCC(F)(F)C(F)(F)F)[C@H]3[C@@H]1CC[C@@H]2O (stereo partly specified) [Fulvestrant] (1000 nM) | 124% |

Test system: CAL-148
Assay: as above
Conditions: incubation time: 72 h
Method: as §1

| Compound | normalised response |
| --- | --- |
| O=C1CCC(N2C(=O)c3ccccc3C2=O)C(=O)N1 (stereo unspecified) [Thalidomide] (10000 nM) | 92.4% |
| Oc1nc(-c2ccc(C(F)(F)F)cc2)nc2c1CSCC2 [XAV-939] (10000 nM) | 94.4% |
| O=P1(NCCCl)OCCCN1CCCl (stereo unspecified) [Ifosfamide] (10000 nM) | 86.7% |
| Clc1ccc(Nc2nnc(Cc3ccncc3)c3ccccc23)cc1 [Vatalanib] (10000 nM) | 105% |
| C[C@@H](Oc1cc(-c2cnn(C3CCNCC3)c2)cnc1N)c1c(Cl)ccc(F)c1Cl [Crizotinib] (1000 nM) | 99.3% |
| CCC1(c2ccc(N)cc2)CCC(=O)NC1=O (stereo unspecified) [Aminoglutethimide] (10000 nM) | 108% |
| Cc1ccc(C(=O)N(CCCN)[C@@H](c2oc3cc(Cl)ccc3c(=O)c2Cc2ccccc2)C(C)C)cc1 (100 nM) | 88.9% |
| Cn1c(CCCC(=O)O)nc2cc(N(CCCl)CCCl)ccc21 [Bendamustine] (10000 nM) | 110% |
| CN[C@@H]1C[C@H]2O[C@@](C)([C@@H]1OC)n1c3ccccc3c3c4c(c5c6ccccc6n2c5c31)C(=O)N[C@H]4O [UCN-01] (10000 nM) | 9.37% |
| C#Cc1cccc(Nc2ncnc3cc(OCCOC)c(OCCOC)cc23)c1 [Erlotinib] (10000 nM) | 69.7% |
| N.N.[Cl][Pt][Cl] [Cisplatin] (1000 nM) | 96.9% |
| Cn1c(Nc2ccc(C(F)(F)F)cc2)nc2cc(Oc3ccnc(-c4ncc(C(F)(F)F)[nH]4)c3)ccc21 [RAF265] (1000 nM) | 99.9% |
| C=C(c1ccc(C(=O)O)cc1)c1cc2c(cc1C)C(C)(C)CCC2(C)C [Bexarotene] (10000 nM) | 79.9% |
| C[C@]12CC[C@@H]3c4ccc(O)cc4C[C@@H](CCCCCCCCC[S+]([O-])CCCC(F)(F)C(F)(F)F)[C@H]3[C@@H]1CC[C@@H]2O (stereo partly specified) [Fulvestrant] (1000 nM) | 104% |

Test system: HCC1143
Assay: as above
Conditions: incubation time: 72 h
Method: as §1

| Compound | normalised response |
| --- | --- |
| O=C1CCC(N2C(=O)c3ccccc3C2=O)C(=O)N1 (stereo unspecified) [Thalidomide] (10000 nM) | 94.7% |
| Oc1nc(-c2ccc(C(F)(F)F)cc2)nc2c1CSCC2 [XAV-939] (10000 nM) | 91.4% |
| O=P1(NCCCl)OCCCN1CCCl (stereo unspecified) [Ifosfamide] (10000 nM) | 96.8% |
| Clc1ccc(Nc2nnc(Cc3ccncc3)c3ccccc23)cc1 [Vatalanib] (10000 nM) | 98.3% |
| C[C@@H](Oc1cc(-c2cnn(C3CCNCC3)c2)cnc1N)c1c(Cl)ccc(F)c1Cl [Crizotinib] (1000 nM) | 102% |
| CCC1(c2ccc(N)cc2)CCC(=O)NC1=O (stereo unspecified) [Aminoglutethimide] (10000 nM) | 97.4% |
| Cc1ccc(C(=O)N(CCCN)[C@@H](c2oc3cc(Cl)ccc3c(=O)c2Cc2ccccc2)C(C)C)cc1 (100 nM) | 96% |

— the supplement of paper PMC4862054
